pIC50: −log10 of the molar value.

RORγt, sequence (P51449 269-508): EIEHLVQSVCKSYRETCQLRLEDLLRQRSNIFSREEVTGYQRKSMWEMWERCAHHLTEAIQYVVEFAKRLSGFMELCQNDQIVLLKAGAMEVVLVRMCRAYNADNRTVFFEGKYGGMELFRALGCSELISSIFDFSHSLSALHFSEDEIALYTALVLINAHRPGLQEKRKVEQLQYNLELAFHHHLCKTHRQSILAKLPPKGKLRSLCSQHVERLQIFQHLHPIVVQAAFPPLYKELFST

The assay addresses RORγt (Homo sapiens (Human), UniProt P51449). In words: Gal4 ligand binding assay (RORγt Gal fusion luciferase reporter assay in HEK293T cells). It is filed as cell-based. To be noted: RORγt inverse agonists in RORγt Gal fusion assay. On the procedure:
The N-terminal DNA binding domains (DBD) of the native RORγ and RORγt receptors have been substituted with that of the yeast GAL4-DBD and stably transfected in HEK293T cells that also stably express luciferase under the regulation by upstream activation sequence of yeast Gal4. These cells constitutively express high level RORγ activity due to binding of endogenous co-factors. Both agonist and inverse agonist activity can be detected. The assay was performed according to kit manufacturer's instructions as follows. 10 mM compound stocks were diluted serially 1:3 with DMSO and further diluted with provided media to generate 10 titration points from 60 μM to 3 nM. These treatment conditions were added to the plates as 2× media in 100 μL volume. Each plate includes a positive control with 10 titration points as well as 6 negative control wells with vehicle only, with final DMSO concentration of 0.2%. RORγ reporter cells were rapidly thawed and added to the plates in 100 μL volume. The plates were incubated for 24 h in a 37° C. humidified 5% CO2 incubator. Media was removed before the addition of room temperature luciferous detection substrate. After 5 minute incubation, relative light units (RLUs) were quantified using a plate reading luminometer. Data was normalized to […] with only 0.2%0DMSO. Before establishing internal controls, ursolic acid was used as control.
For orientation: pIC50 means −log10 of the IC50, conventionally taken in molar units. `CC(C)c1c(F)c(CN2CC3(C2)CN(S(C)(=O)=O)C3)cc(F)c1-c1ccc(C(O)(C(F)(F)F)C(F)(F)F)cc1F` [Example 86, 1,1,1,3,3,3-hexafluoro-2-(2,3′,6′-trifluoro-2′-isopropyl-4′-((6-(methylsulfonyl)-2,6-diazaspiro[3.3]heptan-2-yl)methyl)-[1,1′-biphenyl]-4-yl)propan-2-ol] gave a pIC50 of more than 7.30.

As for `CCc1c(F)c(CN2CC3(C2)CN(S(C)(=O)=O)C3)cc(F)c1-c1ccc(C(O)(C(F)(F)F)C(F)(F)F)cc1Cl` [Example 72, 2-(2-chloro-2′-ethyl-3′,6′-difluoro-4′-((6-(methylsulfonyl)-2,6-diazaspiro[3.3]heptan-2-yl)methyl)-[1,1′-biphenyl]-4-yl)-1,1,1,3,3,3-hexafluoropropan-2-ol], the pIC50 was more than 7.30.

Regarding `CCc1cc(CN2CC3(C2)CS(=O)(=O)C3)ccc1-c1ccc(C(O)(C(F)(F)F)C(F)(F)F)cc1` [Example 26, 6-((2-ethyl-4′-(1,1,1,3,3,3-hexafluoro-2-hydroxypropan-2-yl)-[1,1′-biphenyl]-4-yl)methyl)-2-thia-6-azaspiro[3.3]heptane 2,2-dioxide], the negative-log IC50 (pIC50) is 6.60 to 7.30.

In the case of `Cc1cc(CN2CC3(C2)CN(S(C)(=O)=O)C3)ccc1-c1ccc(C(O)(C(F)(F)F)C(F)(F)F)cc1` [Example 50, 1,1,1,3,3,3-hexafluoro-2-(2′-methyl-4′-((6-(methylsulfonyl)-2,6-diazaspiro[3.3]heptan-2-yl)methyl)-[1,1′-biphenyl]-4-yl)propan-2-ol], the negative-log IC50 (pIC50) was 6.60 to 7.30.

For `CC(C)c1cc(CN2CC3(C2)CN(S(C)(=O)=O)C3)cc(F)c1-c1ccc(C(O)(C(F)(F)F)C(F)(F)F)cc1` [Example 15, 1,1,1,3,3,3-hexafluoro-2-(2′-fluoro-6′-isopropyl-4′-((6-(methylsulfonyl)-2,6-diazaspiro[3.3]heptan-2-yl)methyl)-[1,1′-biphenyl]-4-yl)propan-2-ol], the negative-log IC50 (pIC50) was more than 7.30.

`CS(=O)(=O)N1CC2(CN(Cc3cc(F)c(-c4ccc(C(O)(C(F)(F)F)C(F)(F)F)cc4Cl)c(C4CC4)c3F)C2)C1` [Example 92, 2-(2-chloro-2′-cyclopropyl-3′,6′-difluoro-4′-((6-(methylsulfonyl)-2,6-diazaspiro[3.3]heptan-2-yl)methyl)-[1,1′-biphenyl]-4-yl)-1,1,1,3,3,3-hexafluoropropan-2-ol] gave a negative-log IC50 (pIC50) of more than 7.30.

In the case of `CCc1cc(C(O)(C(F)(F)F)C(F)(F)F)ccc1-c1c(F)cc(CN2CC3(C2)CN(S(C)(=O)=O)C3)c(F)c1C(C)C` [Example 85, 2-(2-ethyl-3′,6′-difluoro-2′-isopropyl-4′-((6-(methylsulfonyl)-2,6-diazaspiro[3.3]heptan-2-yl)methyl)-[1,1′-biphenyl]-4-yl)-1,1,1,3,3,3-hexafluoropropan-2-ol], the negative-log IC50 (pIC50) was more than 7.30.

With `CCc1cc(CN2CCC3(C2)CN(S(C)(=O)=O)C3)ccc1-c1ccc(C(O)(C(F)(F)F)C(F)(F)F)cc1` [Example 30, 2-(2′-ethyl-4′-((2-(methylsulfonyl)-2,6-diazaspiro[3.4]octan-6-yl)methyl)-[1,1′-biphenyl]-4-yl)-1,1,1,3,3,3-hexafluoropropan-2-ol], the negative-log IC50 (pIC50) was more than 7.30.

`CC(C)c1c(F)c(CN2CC3(C2)CN(S(C)(=O)=O)C3)cc(F)c1-c1ccc(C(O)(C(F)(F)F)C(F)(F)F)cc1` [Example 7, 2-(3′,6′-difluoro-2′-isopropyl-4′-((6-(methylsulfonyl)-2,6-diazaspiro[3.3]heptan-2-yl)methyl)-[1,1′-biphenyl]-4-yl)-1,1,1,3,3,3-hexafluoropropan-2-ol]: the pIC50 is more than 7.30.

As to `Cc1cc(C(O)(C(F)(F)F)C(F)(F)F)ccc1-c1ccc(CN2CCC3(C2)CS(=O)(=O)C3)cc1C(C)C` [Example 11, 6-((4′-(1,1,1,3,3,3-hexafluoro-2-hydroxypropan-2-yl)-2-isopropyl-2′-methyl-[1,1′-biphenyl]-4-yl)methyl)-2-thia-6-azaspiro[3.4]octane 2,2-dioxide], the pIC50 was more than 7.30.

The record behind these values is US11242350B2, “Spirocyclic ROR-gamma modulators” (Escalier Biosciences B.V., priority 2018, dated 2022).
